According to paper PMC10600239, “Selective MCL-1 inhibitor ABBV-467 is efficacious in tumor models but is associated with cardiac troponin increases in patients” (Communications Medicine, 2023):
Several values for one entry are separate records, joined by “and”; a condition that tells them apart may be missing. Equal entries are not always repeated. Where two headings read alike, the source gives them in different places.

Experiments:
[1] = 4-week (5-dose) IV infusion toxicity study with 4-week recovery
Procedure: range-finding studies, and 4-we ek (5-dose) with recovery GLP studies in rats and dogs. For all studies, test item was
administered once weekly by 30 -minute IV infusion. Standard GLP endpoints were assessed including in- life (body weights,
clinical observations, eye exams), electro cardiograms (dog s only), clinical pathology (hematology, clinical chemistry, and
coagulation) and anatomic pathology (macroscopic and mic roscopic observations and organ weights).
Study design was generally in compliance with FDA Redbook
Guidance IV.C. 3.a. and IV.C.3. b. sections on short-term toxicity studies with rodents and non- rodents, respectively (viz.
Studies were appr oved by the animal use committee of Charles River Laboratories, Mattawan, MI. No animals or
data were excluded from analysis. Healthy dogs, as determined by veterinary physical examination and clinical pathology,
were randomized between dose groups using laboratory information management softw are.

[2] = molecular target: hERG (Homo sapiens, UniProt Q12809); assay: hERG current, in vitro; assay type: cell-based; conditions: read-out: hERG tail current IC50
Procedure: (§1) Supplementary Table S6: Maj or findings in safety pharmac ology cardiovascular studies c onduc ted with ABBV- […]
(§2) Species/Strain Route of Concentrations Sex and N Results
(§3) Administration or Doses per Group […]
(§4) Anesthetized IV 1, 3, and Male No effects up to a plasma concentration dog 10 m g/ k gN=4 o f 16 .83 µg/mL on […]
(§5) aged 8-12 months • Heart rate
(§6) • Systemic vascular resistance
(§7) At 67 .23 mg/m L, an increase in heart rate and decrease in systemic vascular
(§8) Conscious IV 0, 0.3, 1, and Male No effects on blood pressure, heart dog 3 mg/kg N=5–6a rate, or ECG parameters at any dose beagle (plasma concentration of 6.53 µg/mL at (aged 8-12 months 3-m g/ k g do s e )
(§9) ECG, electrocardiogram; IC50, half maximal inhibitory concentration; IV, intravenous; QTcV, QT interval correct ed accor ding to the Van de Water formula. No animals or data were excl uded from analysis . Studies were approved by the animal use committee of Abbvie, Lake County, IL. Healthy dogs, as determined by veterinary physical examination and clinical pathology, were selected for study based on availability without explicit randomization. Conscious dog telemetry utiliz ed a Latin square design to randomize for dose order e ff ects. The same 6 dogs received all d oses. Power analysis has shown a group size of 6 can statistically detect an approximately 20 % alteration in measured parameters w ith α =0.0 5. […]

[3] = Conscious telemetry-instrumented dog cardiovascular safety pharmacology; assay type: in vivo; conditions: conscious beagle, IV, at 3-mg/kg dose
Description: ABBV-467 was profiled in safety pharmacology studies in anesthetized (non-Good Laboratory Practice [GLP]) and telemetry-instrumented conscious (GLP) dog cardiovascular assays (Supplementary Table S6).
as §1, §2, §3, §4, §5, §6, §7, §8
as §9, with “Studies were approved by the animal use committee of Abbvie, Lake County, IL.” left out, “Conscious dog telemetry utiliz ed a Latin square design to randomize for dose order e ff ects. The same 6 dogs received all d oses.” left out

[4] = tested on: DLD-1 cells; assay: In vitro cell viability assay (CellTiter-Glo); assay type: cell-based, human; conditions: for EC50: Homo sapiens
Procedure: (§10) All cell lines were grown and treated in RPMI 1640 or Dulbecco’s modified Eagle medium (Sigma, St. Louis, MO) supplemented with 10% fetal bovine serum (Gibco) or 10% human serum (Sigma) and maintained in a humidified incubator at 5% CO2 and 37 °C. DLD-1, MV4-11, NCI-H929 (all ATCC, Manassas, VA, USA) and AMO-1 (DSMZ, Braunschweig, Germany) cells were plated 4000 cells per well in 384-well tissue culture plates and treated with compounds of interest for 24 h at 37 °C, 5% CO2 humidified incubator. Each concentration was tested in duplicate at least 3 separate times. Adherent cells were allowed to adhere overnight prior to treatment. Alternatively, AMO-1 or NCI-H929 cells were treated with ABBV-467 for the indicated contact times (1–24 h) at 37 °C in a 5% CO2 humidified incubator and washed 3 times with compound-free media prior to incubation for the remainder of a 24-h treatment period. Cell viability was subsequently determined using CellTiter-Glo (Promega, Madison, WI, USA) according to the manufacturer’s instructions.
(§11) For in vitro viability assays, mean EC50 and EC90 values were determined from the resulting dose-response curves from at least 3 independent experiments, and depict the mean ± standard error of the mean.

[5] = tested on: MV4-11 cells; assay: In vitro cell viability assay (CellTiter-Glo); assay type: cell-based, human
Procedure: as §10, §11

[6] = molecular target: human MCL-1 (Homo sapiens, UniProt Q07820); assay: Time-resolved FRET binding assay
Procedure: Test compounds were serially diluted in DMSO starting at […] (20× starting concentration; 100% DMSO followed by a 1:10 dilution of the compound DMSO plate into assay buffer); 10 µL of the compound in 10% DMSO was then transferred into a 384-well plate (low-volume Corning #3673 assay plate). Glutathione S-transferase (GST)-tagged recombinant BCL-2, BCL-XL, MCL-1, BCL-W, or BCL2-A1 protein (1 nM each) were mixed with 100 nM Oregon Green™-labeled f-BAK peptide probe and 1 nM Tb-labeled anti-GST antibody were mixed. Then 10 µL of a 2× protein/probe/antibody mix was added to each well of increasing concentrations of test compound in assay buffer (20 mM potassium phosphate, pH 7.6, 50 mM NaCl, 1 mM ethylenediaminetetraacetic acid disodium salt dihydrate, 0.05% pluronic acid F-68, 1 mM DL-dithiothreitol) at room temperature (final concentrations listed in Supplementary Table S2). The samples were then mixed on a shaker for 1 min and incubated for an additional 1 h at room temperature. For each assay plate, a probe/antibody and protein/antibody/probe mixture were included as a negative and a positive control, respectively. Fluorescence was measured on the EnVision™ (Perkin Elmer) using a 340/35-nm excitation filter and 520/525- (F-Bak) and 495/510-nm (Tb-labeled anti-glutathione S-transferase [GST] antibody) emission filters. Dissociation constants were determined using Wang’s equation[35]. The time-resolved FRET assay can be performed in the presence of varying concentrations of human serum to determine apparent half-maximal inhibitory concentration after serum protein binding.

Chain of human MCL-1 (Q07820 whole entry): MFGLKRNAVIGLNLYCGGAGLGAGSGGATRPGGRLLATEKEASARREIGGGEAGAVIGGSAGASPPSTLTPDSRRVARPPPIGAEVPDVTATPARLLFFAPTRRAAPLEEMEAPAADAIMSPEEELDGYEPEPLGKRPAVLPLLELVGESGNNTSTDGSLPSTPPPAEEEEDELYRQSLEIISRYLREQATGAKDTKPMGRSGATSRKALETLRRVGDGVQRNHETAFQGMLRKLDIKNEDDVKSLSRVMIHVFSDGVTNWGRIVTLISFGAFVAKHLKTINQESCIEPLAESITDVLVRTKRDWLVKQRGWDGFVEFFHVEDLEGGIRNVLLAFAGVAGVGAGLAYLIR
Chain of hERG (Q12809 whole entry): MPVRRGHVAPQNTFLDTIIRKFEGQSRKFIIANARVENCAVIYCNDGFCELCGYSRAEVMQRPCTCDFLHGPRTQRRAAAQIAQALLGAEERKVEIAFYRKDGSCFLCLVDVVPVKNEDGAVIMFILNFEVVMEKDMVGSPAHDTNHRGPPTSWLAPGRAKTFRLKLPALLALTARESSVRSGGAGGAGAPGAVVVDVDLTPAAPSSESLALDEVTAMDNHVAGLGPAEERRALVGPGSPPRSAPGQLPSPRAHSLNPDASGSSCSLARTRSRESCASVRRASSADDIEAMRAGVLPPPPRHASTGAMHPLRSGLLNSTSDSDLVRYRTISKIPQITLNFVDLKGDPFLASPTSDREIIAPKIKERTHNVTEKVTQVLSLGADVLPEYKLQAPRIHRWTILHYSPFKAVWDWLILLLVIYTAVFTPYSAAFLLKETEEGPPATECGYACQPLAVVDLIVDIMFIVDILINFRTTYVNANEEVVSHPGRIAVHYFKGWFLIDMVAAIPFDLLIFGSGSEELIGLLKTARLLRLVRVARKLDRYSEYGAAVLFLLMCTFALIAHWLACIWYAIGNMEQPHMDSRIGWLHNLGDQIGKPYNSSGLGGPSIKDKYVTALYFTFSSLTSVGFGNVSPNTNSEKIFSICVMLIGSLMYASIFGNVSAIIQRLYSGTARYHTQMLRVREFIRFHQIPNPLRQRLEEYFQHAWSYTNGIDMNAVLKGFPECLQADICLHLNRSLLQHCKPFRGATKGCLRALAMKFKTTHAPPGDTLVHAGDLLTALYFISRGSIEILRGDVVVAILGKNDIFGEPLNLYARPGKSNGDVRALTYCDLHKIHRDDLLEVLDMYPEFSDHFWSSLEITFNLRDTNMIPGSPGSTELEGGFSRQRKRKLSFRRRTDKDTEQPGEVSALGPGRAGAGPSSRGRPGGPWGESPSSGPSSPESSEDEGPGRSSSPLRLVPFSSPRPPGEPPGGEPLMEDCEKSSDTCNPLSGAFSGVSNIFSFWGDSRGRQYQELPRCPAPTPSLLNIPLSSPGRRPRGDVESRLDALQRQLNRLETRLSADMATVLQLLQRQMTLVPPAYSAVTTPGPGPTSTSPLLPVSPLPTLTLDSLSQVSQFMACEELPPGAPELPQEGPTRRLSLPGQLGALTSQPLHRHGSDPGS

Cc1c(Cl)c2c(Cl)c(C)c1-c1c(-c3ccc(F)cc3)sc3ncnc(c13)O[C@@H](C(=O)O)Cc1cc(ccc1OCc1ccnc(-c3ccc(OC[C@H]4COCCO4)cc3)n1)OC[C@@H](CN1CCN(C)CC1)O2 [ABBV-467]
mortality ([1]; beagle dog, 10 mg/kg after 1 or 2 doses (days 3–10)): Mortality | reversibility of toxicities ([1]; dogs, after a 4-week recovery period): partially or fully reversible | primary target organs of apoptosis/single-cell necrosis ([1]; dogs, once-weekly dosing): pancreas, liver, gastrointestinal tract, and the hematopoietic system | impact on cardiovascular endpoints (anatomic, clinical pathology, and/or function) ([1]; multidose GLP toxicity study, dogs): No direct impact | IC50 [2]: > 20.3 µg/mL | plasma concentration with no effects on blood pressure, heart rate, or ECG parameters [3]: 6530 ng/mL | activity in DLD-1 [4]: inactive | EC50 ([4]; DLD-1, read-out: DLD-1 EC50 (nM), 10% FBS, 24 h continuous treatment): > 10000 nM | EC50 ([4]; DLD-1, arithmetic mean, read-out: Arithmetic Mean EC50): > 10000 nM | EC50 ([4]; DLD-1, individual determinations, read-out: Individual EC50): > 10000 nM | EC50 ([5]; Homo sapiens, MV4-11, MV4-11, arithmetic mean, read-out: Arithmetic Mean EC50 µM): 0.00391 µM | EC50 ([5]; Homo sapiens, MV4-11, MV4-11, individual determinations, read-out: Individual EC50): 0.00403 µM | EC50 ([5]; MV4-11, individual determinations, read-out: Individual EC50): 0.00422 µM and 0.00347 µM | Ki ([6]; TR-FRET, arithmetic mean, read-out: Arithmetic Mean Ki, MCL1): < 0.01 nM | Ki ([6]; TR-FRET, individual determinations, read-out: Individual Ki, MCL1): < 0.01 nM | Ki ([6]; read-out: TR-FRET, Ki, nM MCL-1): < 0.01 nM
